System: RNAi-treated eri-1 (mg366) nematodes
Experiment: RNAi screening of olfactory receptor genes: chemotaxis assay of RNAi-treated nematodes to odorants
Type: in vivo, Caenorhabditis elegans
Conditions: low concentration of attractant
How it was run: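 eri-1 (mg366) worms knocked down by feeding RNAi (Ahringer library) on IPTG/ampicillin NGM plates with E. coli for 4 days, then tested for chemotaxis, 30–50 worms per assay. Odorants at 1 μl of 10^−3 or 10^−4 dilution, or 1 and 5 μl undiluted. Hits scored by z score, thresholds ±1.96 (P<0.05) or ±0.96.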

## CCC(C)=O [butanone]
Control nematodes
  chemotaxis index: 0.65 ± 0.021
srh-10 RNAi-treated nematodes
  chemotaxis index: −0.65
srh-11 RNAi-treated nematodes
  chemotaxis index: −0.15
srh-15 RNAi-treated nematodes
  chemotaxis index: 0.55
srh-16 RNAi-treated nematodes
  chemotaxis index: 0.74
srh-18 RNAi-treated nematodes
  chemotaxis index: 0.52
srh-19 RNAi-treated nematodes
  chemotaxis index: 0.89
srh-22 RNAi-treated nematodes
  chemotaxis index: 0.19
srh-23 RNAi-treated nematodes
  chemotaxis index: 0.67
srh-24 RNAi-treated nematodes
  chemotaxis index: 0.59
srh-25 RNAi-treated nematodes
  chemotaxis index: 0.72
srh-27 RNAi-treated nematodes
  chemotaxis index: 0.63
srh-28 RNAi-treated nematodes
  chemotaxis index: 0.55
srh-36 RNAi-treated nematodes
  chemotaxis index: 0.37
srh-37 RNAi-treated nematodes
  chemotaxis index: 0.37
srh-39 RNAi-treated nematodes
  chemotaxis index: 0.48
srh-40 RNAi-treated nematodes
  chemotaxis index: 0.94
srh-41 RNAi-treated nematodes
  chemotaxis index: 0.64
srh-44 RNAi-treated nematodes
  chemotaxis index: 0.82
srh-45 RNAi-treated nematodes
  chemotaxis index: 0.73
srh-46 RNAi-treated nematodes
  chemotaxis index: 0.82
srh-48 RNAi-treated nematodes
  chemotaxis index: 0.55
srh-49 RNAi-treated nematodes
  chemotaxis index: 0.80
srh-50 RNAi-treated nematodes
  chemotaxis index: 0.87
srh-51 RNAi-treated nematodes
  chemotaxis index: 0.70
srh-52 RNAi-treated nematodes
  chemotaxis index: 0.69
srh-55 RNAi-treated nematodes
  chemotaxis index: 0.43
srh-59 RNAi-treated nematodes
  chemotaxis index: 0.51
srh-60 RNAi-treated nematodes
  chemotaxis index: 0.79
srh-61 RNAi-treated nematodes
  chemotaxis index: 0.74
srh-67 RNAi-treated nematodes
  chemotaxis index: 0.85
srh-68 RNAi-treated nematodes
  chemotaxis index: 0.67
srh-69 RNAi-treated nematodes
  chemotaxis index: 0.66
srh-70 RNAi-treated nematodes
  chemotaxis index: 0.43
srh-71 RNAi-treated nematodes
  chemotaxis index: 0.76
srh-72 RNAi-treated nematodes
  chemotaxis index: 0.58
srh-74 RNAi-treated nematodes
  chemotaxis index: 0.76
srh-75 RNAi-treated nematodes
  chemotaxis index: 0.76
srh-77 RNAi-treated nematodes
  chemotaxis index: 0.70
srh-79 RNAi-treated nematodes
  chemotaxis index: 0.58
srh-80 RNAi-treated nematodes
  chemotaxis index: 0.64
srh-82 RNAi-treated nematodes
  chemotaxis index: 0.79
srh-83 RNAi-treated nematodes
  chemotaxis index: 0.71
srh-97 RNAi-treated nematodes
  chemotaxis index: 0.80
srh-99 RNAi-treated nematodes
  chemotaxis index: 0.75
srh-100 RNAi-treated nematodes
  chemotaxis index: 0.80
srh-104 RNAi-treated nematodes
  chemotaxis index: 0.48
srh-105 RNAi-treated nematodes
  chemotaxis index: 0.76
srh-109 RNAi-treated nematodes
  chemotaxis index: 0.89
srh-111 RNAi-treated nematodes
  chemotaxis index: 0.59
srh-113 RNAi-treated nematodes
  chemotaxis index: 0.30
srh-115 RNAi-treated nematodes
  chemotaxis index: 0.70
srh-116 RNAi-treated nematodes
  chemotaxis index: 0.56
srh-118 RNAi-treated nematodes
  chemotaxis index: 0.60
srh-119 RNAi-treated nematodes
  chemotaxis index: 0.50
srh-120 RNAi-treated nematodes
  chemotaxis index: 0.78
srh-122 RNAi-treated nematodes
  chemotaxis index: 0.58
srh-123 RNAi-treated nematodes
  chemotaxis index: 0.84
srh-125 RNAi-treated nematodes
  chemotaxis index: 0.76
srh-128 RNAi-treated nematodes
  chemotaxis index: 0.69
srh-129 RNAi-treated nematodes
  chemotaxis index: 0.63
srh-130 RNAi-treated nematodes
  chemotaxis index: 0.82
srh-214 RNAi-treated nematodes
  chemotaxis index: 0.85
srh-216 RNAi-treated nematodes
  chemotaxis index: 0.86
srh-217 RNAi-treated nematodes
  chemotaxis index: 0.69
srh-220 RNAi-treated nematodes
  chemotaxis index: 0.81
srh-222 RNAi-treated nematodes
  chemotaxis index: 0.62
srh-223 RNAi-treated nematodes
  chemotaxis index: 0.88
srh-227 RNAi-treated nematodes
  chemotaxis index: 0.37
srh-229 RNAi-treated nematodes
  chemotaxis index: 0.60
srh-233 RNAi-treated nematodes
  chemotaxis index: 0.50
srh-235 RNAi-treated nematodes
  chemotaxis index: 0.76
srh-236 RNAi-treated nematodes
  chemotaxis index: 0.71
srh-239 RNAi-treated nematodes
  chemotaxis index: 0.59
srh-241 RNAi-treated nematodes
  chemotaxis index: 0.63
srh-243 RNAi-treated nematodes
  chemotaxis index: 0.72
srh-244 RNAi-treated nematodes
  chemotaxis index: 0.73
srh-247 RNAi-treated nematodes
  chemotaxis index: 0.85
srh-250 RNAi-treated nematodes
  chemotaxis index: 0.79
srh-251 RNAi-treated nematodes
  chemotaxis index: 0.92
srh-252 RNAi-treated nematodes
  chemotaxis index: 0.86
srh-258 RNAi-treated nematodes
  chemotaxis index: 0.56
srh-261 RNAi-treated nematodes
  chemotaxis index: 0.60
srh-264 RNAi-treated nematodes
  chemotaxis index: 0.56
srh-266 RNAi-treated nematodes
  chemotaxis index: −0.31
srh-274 RNAi-treated nematodes
  chemotaxis index: −0.59
srh-275 RNAi-treated nematodes
  chemotaxis index: −0.29
srh-276 RNAi-treated nematodes
  chemotaxis index: 0.30
srh-277 RNAi-treated nematodes
  chemotaxis index: −0.09
srh-279 RNAi-treated nematodes
  chemotaxis index: 0.89
srh-281 RNAi-treated nematodes
  chemotaxis index: 0.49
srh-282 RNAi-treated nematodes
  chemotaxis index: 0.80
srh-283 RNAi-treated nematodes
  chemotaxis index: 0.65
srh-284 RNAi-treated nematodes
  chemotaxis index: 0.73
srh-291 RNAi-treated nematodes
  chemotaxis index: 0.86
srh-292 RNAi-treated nematodes
  chemotaxis index: 0.80
srh-293 RNAi-treated nematodes
  chemotaxis index: 0.75
srh-297 RNAi-treated nematodes
  chemotaxis index: 0.84
srh-298 RNAi-treated nematodes
  chemotaxis index: 0.65
srh-308 RNAi-treated nematodes
  chemotaxis index: 0.04
